Measurements: patent publication US9328138B2 (priority 2011, dated 2016)
pKi: −log10 of the molar value.

Tests used:
[1] = target: T1, HCV genotype 1b (BK) NS3 modified enzyme with a R155K mutation (Hepatitis C virus genotype 1b, UniProt P26663, R1181K); test: HCV NS3 protease time-resolved fluorescence (TRF) assay, genotype 1b R155K; assay type: biochemical; conditions: Ki 1b R155K
T1 construct: HCV genotype 1b (BK) NS3 modified enzyme
Method in brief: (§1)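 Steps: compound plus NS3/NS4A enzyme for 10 minutes; add peptide substrate to 25 nM; let cleavage proceed 6 hours at room temperature; read product fluorescence (340 nm excitation, 615 nm emission, delayed 400 μs). Enzyme levels gave signal/background 5-20.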

[2] = target: HCV NS3 protease genotype 3a (3A-1) (Hepatitis C virus genotype 3a, UniProt Q81258); test: HCV NS3 protease time-resolved fluorescence (TRF) assay, genotype 3a; assay type: biochemical; conditions: Ki 3a
Method in brief: as §1

[3] = genotype 1b (BK) NS3 R155K, single value

Compound	pKi [1, 3]	pKi [2]	pKi ([1]; first of two values printed in the cell (not explained))	pKi ([1]; second of two values printed in the cell (not explained))
C=C[C@@H]1C[C@]1(NC(=O)[C@@H]1C[C@@H]2CN1C(=O)[C@H](C1(C)CCCCC1)NC(=O)O[C@@H]1C[C@H]1CCCCCc1c(nc3ccccc3c1OCCN1CCOCC1)O2)C(=O)NS(=O)(=O)C1(C)CC1 [Example 123, (1aR,5S,8S,10R,22aR)-N-[(1R,2S)-2-ethenyl-1-{[(1-methylcyclopropyl)sulfonyl]carbamoyl}cyclopropyl]-5-(1-methylcyclohexyl)-17-[2-(morpholin-4-yl)ethoxy]-3,6-dioxo-1,1a,3,4,5,6,9,10,18,19,20,21,22,22a-tetradecahydro-8H-7,10-methanocyclopropa[18,19] [1,10,3,6]dioxadiazacyclononadecino [11,12-b]quinoline-8-carboxamide]	9.31	8.21	–	–
C=CC1C[C@]1(NC(=O)[C@@H]1C[C@@H]2CN1C(=O)[C@H](C(C)(C)C)NC(=O)O[C@@H]1CCC[C@H]1CCCCCc1c(nc3ccccc3c1OCCN1CCOCC1)O2)C(=O)NS(=O)(=O)C1(C(=C)C)CC1 (stereo partly drawn) [Example 62]	8.80	7.07	–	–
C=C[C@@H]1C[C@]1(NC(=O)[C@@H]1C[C@@H]2CN1C(=O)[C@H](C(C)(C)C)NC(=O)O[C@@H]1CCC[C@H]1CCCCCc1c(nc3ccccc3c1OCCCN1CCCCC1)O2)C(=O)NS(=O)(=O)C1(COC)CC1 [Example 96, (3aR,7S,10S,12R,24aR)-7-tert-butyl-N-[(1R,2S)-2-ethenyl-1-({[1-(methoxymethyl)cyclopropyl]sulfonyl}carbamoyl)cyclopropyl]-5,8-dioxo-19-[3-(piperidin-1-yl)propoxy]-1,2,3,3a,5,6,7,8,11,12,20,21,22,23,24,24a-hexadecahydro-10H-9,12-methanocyclopenta[18,19][1,10,3,6]dioxadiazacyclononadecino[11,12-b]quinoline-10-carboxamide]	9.82	9.11	–	–
C=C[C@@H]1C[C@]1(NC(=O)[C@@H]1C[C@@H]2CN1C(=O)[C@H](C(C)(C)C)NC(=O)O[C@@H]1C[C@H]1CCCCCc1c(nc3ccccc3c1OCCCNC1CCCc3ccccc31)O2)C(=O)NS(=O)(=O)C1(C)CC1 (stereo partly drawn) [Example 204, (1aR,5S,8S,10R,22aR)-5-tert-butyl-N-[(1R,2S)-2-ethenyl-1-{[(1-methylcyclopropyl)sulfonyl]carbamoyl}cyclopropyl]-3,6-dioxo-17-[3-(1,2,3,4-tetrahydronaphthalen-1-ylamino)propoxy]-1,1a,3,4,5,6,9,10,18,19, 20,21,22,22a-tetradecahydro-8H-7,10-methanocyclopropa[18,19][1,10,3,6] dioxadiazacyclononadecino[11,12-b] quinoline-8-carboxamide]	9.82	8.62	–	–
C=C[C@@H]1C[C@]1(NC(=O)[C@@H]1C[C@@H]2CN1C(=O)[C@H](C(C)(C)C)NC(=O)O[C@@H]1C[C@H]1CCCCCc1c(nc3cc(C(F)(F)F)ccc3c1OCCN1CCOCC1)O2)C(=O)NS(=O)(=O)C1(C)CC1 [Example 129, (1aR,5S,8S,10R,22aR)-5-tert-butyl-N-[(1R,2S)-2-ethenyl-1-{[(1-methylcyclopropyl)sulfonyl]carbamoyl}cyclopropyl]-17-[2-(morpholin-4-yl)ethoxy]-3,6-dioxo-14-(trifluoromethyl)-1,1a,3,4,5,6,9,10,18,19,20,21,22,22a-tetradecahydro-8H-7,10-methanocyclopropa[18,19][1,10,3,6] dioxadiazacyclononadecino[11,12-b] quinoline-8-carboxamide]	9.29	8.06	–	–
C=C[C@@H]1C[C@]1(NC(=O)[C@@H]1C[C@@H]2CN1C(=O)[C@H](C1CCCCC1)NC(=O)O[C@@H]1C[C@H]1CCCCCc1c(nc3ccccc3c1O[C@@H]1CCN(C(=O)OC(C)(C)C)C[C@@H]1F)O2)C(=O)NS(=O)(=O)C1(C)CC1 [Example 292, tert-butyl (3S,4R)-4-{[(1aR,5S,8S,10R,22aR)-5-cyclohexyl-8-{[(1R,2S)-2-ethenyl-1-{[(1-methylcyclopropyl)sulfonyl]carbamoyl}cyclopropyl]carbamoyl}-3,6-dioxo-1,1a,3,4,5,6,9,10,18,19,20,21,22,22a-tetradecahydro-8H-7,10-methanocyclopropa[18,19][1,10,3,6]dioxadiazacyclononadecino[11,12-b]quinolin-17-yl]oxy}-3-fluoropiperidine-1-carboxylate]	–	7.31	9.92	9.13
C=C[C@@H]1C[C@]1(NC(=O)[C@@H]1C[C@@H]2CN1C(=O)[C@H](C(C)(C)C)NC(=O)O[C@@H]1C[C@H]1CCCCCc1c(nc3ccccc3c1OCCCN(C)Cc1ncc[nH]1)O2)C(=O)NS(=O)(=O)C1(C)CC1 [Example 200, (1aR,5S,8S,10R,22aR)-5-tert-butyl-N-[(1R,2S)-2-ethenyl-1-{[(1-methylcyclopropyl)sulfonyl]carbamoyl}cylcopropyl]-17-{3-[(1H-imidazol-2-ylmethyl)(methyl)amino]propoxy}-3,6-dioxo-1,1a,3,4,5,6,9,10,18, 19,20,21,22,22a-tetradecahydro-8H-7,10-methanocyclopropa[18,19][1,10,3,6] dioxadiazacyclononadecino[11,12-b] quinoline-8-carboxamide]	10.13	9.02	–	–
C=C[C@@H]1C[C@]1(NC(=O)[C@@H]1C[C@@H]2CN1C(=O)[C@H](C(C)(C)C)NC(=O)O[C@@H]1C[C@H]1CCCCCc1c(nc3c(F)cccc3c1OCCN1CCOCC1)O2)C(=O)NS(=O)(=O)C1(C)CC1 [Example 126, (1aR,5S,8S,10R,22aR)-5-tert-butyl-N-[(1R,2S)-2-ethenyl-1-{[(1-methylcyclopropyl)sulfonyl]carbamoyl}cyclopropyl]-13-fluoro-17-[2-(morpholin-4-yl)ethoxy]-3,6-dioxo-1,1a,3,4,5,6,9,10,18,19, 20,21,22,22a-tetradecahydro-8H-7,10-methanocyclopropa[18,19][1,10,3,6] dioxadiazacyclononadecino[11,12-b] quinoline-8-carboxamide]	9.40	8.11	–	–
C=CC1C[C@]1(NC(=O)[C@@H]1C[C@@H]2CN1C(=O)[C@H](C(C)(C)C)NC(=O)O[C@@H]1CCC[C@H]1CCCCCc1c(nc3ccccc3c1OCCN1CCOCC1)O2)C(=O)NS(=O)(=O)C1(COCCOC)CC1 (stereo partly drawn) [Example 65, (3aR,7S,10S,12R, 24aR)-7-tert-butyl-N-{(1R,2S)-2-ethenyl-1-[({1-[(2-methoxyethoxy)methyl]cyclopropyl}sulfonyl)carbamoyl]cyclopropyl}-19-[2-(morpholin-4-yl)ethoxy]-5,8-dioxo-1,2,3,3a,5,6,7,8,11, 12,20,21,22,23,24, 24a-hexadecahydro-10H-9,12-methanocyclopenta [18,19][1,10,3,6] dioxadiaza-cyclononadecino [11,12-b]quinoline-10-carboxamide]	9.25	7.80	–	–
C=C[C@@H]1C[C@]1(NC(=O)[C@@H]1C[C@@H]2CN1C(=O)[C@H](C(C)(C)C)NC(=O)O[C@@H]1CCC[C@H]1CCCCCc1c(nc3ccccc3c1OCCN(C)C)O2)C(=O)NS(=O)(=O)C1(COC)CC1 [Example 63, (3aR,7S,10S,12R, 24aR)-7-tert-butyl-19-[2-(dimethylamino)ethoxy]-N-[(1R,2S)-2-ethenyl-1-({[1-(methoxymethyl)cyclopropyl]sulfonyl}carbamoyl)cyclopropyl]-5,8-dioxo-1,2,3,3a, 5,6,7,8,11,12,20, 21,22,23,24,24a-hexadecahydro-10H-9,12-methanocyclopenta [18,19][1,10,3,6]dioxa-diazacyclononadecino [11,12-b]quinoline-10-carboxamide]	9.46	8.14	–	–
